Earlier results in US20090162444A1, “RALOXIFENE COMPOSITION” (priority 2007, published 2009).
Counter-ions that a name gives are not always drawn.

Legend:
[1] = not given; remark: listed apart in the source
[2] = oral administration

solubility in water	solubility in gastric and intestinal fluid [1]	absolute bioavailability [2]	SMILES
627 µg/mL	very slightly soluble		O=C(c1ccc(OCCN2CCCCC2)cc1)c1c(-c2ccc(O)cc2)sc2cc(O)ccc12 [Raloxifene hydrochloride, raloxifene hydrochloride]
		about 2%	O=C(c1ccc(OCCN2CCCCC2)cc1)c1c(-c2ccc(O)cc2)sc2cc(O)ccc12 [Raloxifene, (6-hydroxy-2-(4-hydroxy-phenyl)benzo[b]thien-3-yl)-(4-(2-(1-piperidinyl)ethoxy)phenyl)methanone]
